Assays:
S. pneumoniae D39V [1] = assay: fitness (endpoint OD595 vs no drug) (fraction); higher = more growth
How it was run: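 At 37 °C, bacteria in TSB, LB Lennox or CY were grown in 384-well plates from a starting OD595 of 0.01. OD595 was measured every 30 min for 14 h, with the first reading used as background. Fitness is the optical density at the switch to stationary phase as a fraction of the robust mean of no-drug control wells, capped at 1.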

B. subtilis 168 = assay: Bliss interaction score (quartile over a dose matrix) (fitness difference); higher = more antagonism (negative = synergy)
How it was run: (§1)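 Fitness was OD595 at entry into stationary phase divided by the plate's robust no-drug mean and capped at 1; single-drug fitness was inferred from combination data. The Bliss score is observed minus expected (product) fitness, summarised by quartiles over technical, biological and donor/recipient replicates.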

S. aureus DSM 20231 = assay: as above
How it was run: as §1

S. aureus Newman = assay: as above
How it was run: as §1

S. pneumoniae D39V [2] = assay: as above
How it was run: as §1
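For Bliss interaction score (quartile over a dose matrix) in this document: first quartile when negative (synergy) and third quartile when positive (antagonism).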

O=C(O[C@@H]1Cc2c(O)cc(O)cc2O[C@@H]1c1cc(O)c(O)c(O)c1)c1cc(O)c(O)c(O)c1 [EGCG] + Clc1ccc(COC(Cn2ccnc2)c2ccc(Cl)cc2Cl)c(Cl)c1 [Miconazole]
fitness, S. pneumoniae D39V [1]
Details	partner 1.073 µg/mL	partner 1.25 µg/mL	partner 2.145 µg/mL	partner 2.5 µg/mL	partner 4.29 µg/mL	partner 5 µg/mL
first compound 12.5 µg/mL	0.956	0.913	≥ 1	0.805	0.824	0.858
first compound 25 µg/mL	0.983	≥ 1	≥ 1	0.923	0.834	0.89
first compound 50 µg/mL	0.987	0.952	0.984	0.86	0.98	0.933

Details	Bliss interaction score
B. subtilis 168	-0.0649
S. aureus DSM 20231	0.278
S. aureus Newman	0.167
S. pneumoniae D39V [2]	0.0773

O=C(O[C@@H]1Cc2c(O)cc(O)cc2O[C@@H]1c1cc(O)c(O)c(O)c1)c1cc(O)c(O)c(O)c1 [EGCG] + O=C1CN(/N=C/c2ccc([N+](=O)[O-])o2)C(=O)N1 [Nitrofurantoin]
fitness, S. pneumoniae D39V [1]
Details	partner 1.285 µg/mL	partner 2 µg/mL	partner 2.57 µg/mL	partner 4 µg/mL	partner 8 µg/mL
first compound 12.5 µg/mL	0.914	0.858	0.938	0.832	0.558
first compound 25 µg/mL	0.949	0.878	0.924	0.891	0.571
first compound 50 µg/mL	0.954	≥ 1	0.951	0.802	0.566

S. pneumoniae D39V [1], partner 5.14 µg/mL, one replicate
Details	fitness
first compound 12.5 µg/mL	0.917
first compound 25 µg/mL	0.901
first compound 50 µg/mL	0.921

Details	Bliss interaction score
B. subtilis 168	0.106
S. aureus DSM 20231	0.103
S. aureus Newman	0.0864
S. pneumoniae D39V [2]	0.0733

C[C@@H](O)[C@H]1C(=O)N2C(C(=O)O)=C(SCCNC=N)C[C@H]12 [Imipenem] + C/C(=C\C(=O)OCCCCCCCCC(=O)O)C[C@@H]1OC[C@H](C[C@@H]2O[C@H]2[C@@H](C)[C@H](C)O)[C@@H](O)[C@H]1O [Pseudomonic acid]
fitness, S. pneumoniae D39V [1]
Details	first compound 0.005 µg/mL	first compound 0.0065 µg/mL	first compound 0.01 µg/mL	first compound 0.013 µg/mL	first compound 0.02 µg/mL	first compound 0.026 µg/mL
partner 0.03 µg/mL	0.897	0.799	0.896	0.889	0.917	0.89
partner 0.06 µg/mL	0.772	–	0.799	0.7	0.77	0.688
partner 0.12 µg/mL	0.578	0.439	0.583	0.479	0.583	0.504

Details	Bliss interaction score
B. subtilis 168	0.12
S. aureus DSM 20231	0.0093
S. aureus Newman	0.0109
S. pneumoniae D39V [2]	-0.146

C[C@@H](O)[C@H]1C(=O)N2C(C(=O)O)=C(SCCNC=N)C[C@H]12 [Imipenem] + CC1=C\[C@@H](O)CC(=O)Cc2nc(co2)C(=O)N2CCC=C2C(=O)O[C@H](C(C)C)[C@H](C)/C=C/C(=O)NC\C=C\1 [Virginiamycin M1]
fitness, S. pneumoniae D39V [1], one replicate
Details	partner 0.15 µg/mL	partner 0.3 µg/mL	partner 0.5 µg/mL	partner 1 µg/mL
first compound 0.005 µg/mL	0.993	0.88	0.978	0.979
first compound 0.01 µg/mL	≥ 1	0.995	0.97	≥ 1
first compound 0.02 µg/mL	0.988	0.901	0.978	≥ 1

fitness, S. pneumoniae D39V [1]
Details	first compound 0.005 µg/mL	first compound 0.0065 µg/mL	first compound 0.01 µg/mL	first compound 0.013 µg/mL	first compound 0.02 µg/mL	first compound 0.026 µg/mL
partner 0.5 µg/mL	–	0.992	–	0.999	–	0.964
partner 1 µg/mL	–	0.983	–	≥ 1	–	0.978
partner 2 µg/mL	0.893	0.983	0.88	–	0.888	0.891

Details	Bliss interaction score
B. subtilis 168	0.0502
S. aureus DSM 20231	0.0515
S. aureus Newman	-0.0199
S. pneumoniae D39V [2]	0.0822

C[C@@H](O)[C@H]1C(=O)N2C(C(=O)O)=C(SCCNC=N)C[C@H]12 [Imipenem] + CC(=O)NC[C@H]1CN(c2ccc(N3CCOCC3)c(F)c2)C(=O)O1 [Linezolid]
fitness, S. pneumoniae D39V [1]
Details	first compound 0.005 µg/mL	first compound 0.0065 µg/mL	first compound 0.01 µg/mL	first compound 0.013 µg/mL	first compound 0.02 µg/mL	first compound 0.026 µg/mL
partner 0.105 µg/mL	0.845	–	0.837	–	0.833	–
partner 0.2 µg/mL	–	0.7	–	0.775	–	0.71
partner 0.21 µg/mL	0.752	–	0.727	–	0.701	–
partner 0.4 µg/mL	–	0.506	–	0.592	–	0.494
partner 0.42 µg/mL	0.6	–	0.47	–	0.578	–
partner 0.8 µg/mL	–	0.116	–	0.225	–	0.148

Details	Bliss interaction score
B. subtilis 168	0.128
S. aureus DSM 20231	0.0377
S. aureus Newman	0.0656
S. pneumoniae D39V [2]	-0.109

C[C@@H](O)[C@H]1C(=O)N2C(C(=O)O)=C(SCCNC=N)C[C@H]12 [Imipenem] + CCC(C)C1C(=O)NC(=C)C(=O)NC(C(=O)NC(CSCC(C(=O)N1)NC(=O)/C(=C/C)/NC(=O)C(C(C)CC)N)C(=O)NC2C(SCC(NC(=O)CNC(=O)C3CCCN3C2=O)C(=O)NC(CCCCN)C(=O)NC4C(SCC(NC(=O)CNC(=O)C(NC(=O)C(NC(=O)C(NC(=O)CNC4=O)C)CC(C)C)CCSC)C(=O)NC(CC(=O)N)C(=O)NC(CCSC)C(=O)NC(CCCCN)C(=O)NC5C(SCC6C(=O)NC(C(=O)NC(CSC(C(C(=O)N6)NC(=O)C(NC5=O)C)C)C(=O)NC(CO)C(=O)NC(C(C)CC)C(=O)NC(CC7=CN=CN7)C(=O)NC(C(C)C)C(=O)NC(=C)C(=O)NC(CCCCN)C(=O)O)CC8=CN=CN8)C)C)C)CC(C)C [Nisin]
fitness, S. pneumoniae D39V [1], main component drawn
Details	first compound 0.005 µg/mL	first compound 0.0065 µg/mL	first compound 0.01 µg/mL	first compound 0.013 µg/mL	first compound 0.02 µg/mL	first compound 0.026 µg/mL
partner 0.4275 µg/mL	≥ 1	–	0.988	–	≥ 1	–
partner 0.855 µg/mL	0.992	–	0.993	–	≥ 1	–
partner 1.6 µg/mL	–	0	–	0.193	–	0.448
partner 1.71 µg/mL	0.133	–	0.0676	–	0.0904	–
partner 3.2 µg/mL	–	0	–	0.0047	–	0.0017
partner 6.4 µg/mL	–	0	–	0.0067	–	0

main component drawn
Details	Bliss interaction score
B. subtilis 168	-0.0431
S. aureus DSM 20231	0.0486
S. aureus Newman	-0.0142
S. pneumoniae D39V [2]	-0.0573

C[C@@H](O)[C@H]1C(=O)N2C(C(=O)O)=C(SCCNC=N)C[C@H]12 [Imipenem] + CCC[C@@H]1C[C@@H](C(=O)N[C@@H]([C@H]2O[C@H](SC)[C@H](O)[C@@H](O)[C@H]2O)[C@@H](C)O)N(C)C1 [Lincomycin]
fitness, S. pneumoniae D39V [1]
Details	first compound 0.005 µg/mL	first compound 0.0065 µg/mL	first compound 0.01 µg/mL	first compound 0.013 µg/mL	first compound 0.02 µg/mL	first compound 0.026 µg/mL
partner 0.2 µg/mL	–	0.68	–	0.738	–	0.693
partner 0.215 µg/mL	0.829	–	0.846	–	0.814	–
partner 0.4 µg/mL	–	0.563	–	0.626	–	0.596
partner 0.43 µg/mL	0.719	–	0.722	–	0.71	–
partner 0.8 µg/mL	–	0.0187	–	0.0703	–	0.0319
partner 0.86 µg/mL	0.474	–	0.451	–	0.453	–

Details	Bliss interaction score
B. subtilis 168	0.163
S. aureus DSM 20231	0.09
S. aureus Newman	0.0416
S. pneumoniae D39V [2]	-0.0603

C[C@@H](O)[C@H]1C(=O)N2C(C(=O)O)=C(SCCNC=N)C[C@H]12 [Imipenem] + CCN(CC)CCOC(=O)c1ccc(N)cc1 [Procaine]
fitness, S. pneumoniae D39V [1], one replicate
Details	first compound 0.005 µg/mL	first compound 0.01 µg/mL	first compound 0.02 µg/mL
partner 85.5 µg/mL	0.932	0.963	0.985
partner 171 µg/mL	≥ 1	0.994	≥ 1
partner 342 µg/mL	0.923	0.931	0.883

fitness, S. pneumoniae D39V [1]
Details	first compound 0.0065 µg/mL	first compound 0.013 µg/mL	first compound 0.026 µg/mL
partner 85.5 µg/mL	0.977	0.978	0.888
partner 171 µg/mL	0.957	0.963	0.917
partner 342 µg/mL	0.957	0.912	0.841

Details	Bliss interaction score
B. subtilis 168	0.0429
S. aureus DSM 20231	0.0667
S. aureus Newman	0.0422
S. pneumoniae D39V [2]	0.0493

C[C@@H](O)[C@H]1C(=O)N2C(C(=O)O)=C(SCCNC=N)C[C@H]12 [Imipenem] + CN1C2=CC=CC=C2N=C3C1=CC=CC3=O [Pyocyanin]
fitness, S. pneumoniae D39V [1], one replicate
Details	first compound 0.005 µg/mL	first compound 0.01 µg/mL	first compound 0.02 µg/mL
partner 0.325 µg/mL	0.945	0.947	≥ 1
partner 0.65 µg/mL	0.979	0.959	0.957

fitness, S. pneumoniae D39V [1]
Details	first compound 0.0065 µg/mL	first compound 0.013 µg/mL	first compound 0.026 µg/mL
partner 0.325 µg/mL	0.975	≥ 1	0.983
partner 0.65 µg/mL	0.936	0.929	0.892
partner 1.3 µg/mL	0.591	0.698	0.657

Details	Bliss interaction score
B. subtilis 168	0.0885
S. aureus DSM 20231	-0.0657
S. aureus Newman	0.0283
S. pneumoniae D39V [2]	0.0503

C[C@@H](O)[C@H]1C(=O)N2C(C(=O)O)=C(SCCNC=N)C[C@H]12 [Imipenem] + CN(C)C(=O)C(CCN1CCC(O)(c2ccc(Cl)cc2)CC1)(c1ccccc1)c1ccccc1 [Loperamide]
fitness, S. pneumoniae D39V [1]
Details	first compound 0.005 µg/mL	first compound 0.0065 µg/mL	first compound 0.01 µg/mL	first compound 0.013 µg/mL	first compound 0.02 µg/mL	first compound 0.026 µg/mL
partner 17.14 µg/mL	0.926	–	0.937	–	0.952	–
partner 20 µg/mL	–	≥ 1	–	≥ 1	–	0.986
partner 34.28 µg/mL	0.907	–	0.947	–	0.942	–
partner 40 µg/mL	–	≥ 1	–	≥ 1	–	0.988
partner 80 µg/mL	–	0.582	–	0.582	–	0.625

S. pneumoniae D39V [1], partner 68.57 µg/mL, one replicate
Details	fitness
first compound 0.005 µg/mL	0.935
first compound 0.01 µg/mL	0.93
first compound 0.02 µg/mL	0.94

Details	Bliss interaction score
B. subtilis 168	-0.203
S. aureus DSM 20231	0.0662
S. aureus Newman	0.0304
S. pneumoniae D39V [2]	0.0901

C[C@@H](O)[C@H]1C(=O)N2C(C(=O)O)=C(SCCNC=N)C[C@H]12 [Imipenem] + CN(C)c1cc(NC(=O)CNC(C)(C)C)c(O)c2c1C[C@H]1C[C@H]3[C@H](N(C)C)C(O)=C(C(N)=O)C(=O)[C@@]3(O)C(O)=C1C2=O [Tigecycline]
fitness, S. pneumoniae D39V [1]
Details	first compound 0.005 µg/mL	first compound 0.0065 µg/mL	first compound 0.01 µg/mL	first compound 0.013 µg/mL	first compound 0.02 µg/mL	first compound 0.026 µg/mL
partner 0.65 µg/mL	0.925	0.992	0.898	0.999	0.932	0.863
partner 1.3 µg/mL	0.922	0.979	0.874	0.893	0.938	0.946
partner 2.6 µg/mL	0.859	0.994	0.87	0.943	0.877	0.956

Details	Bliss interaction score
B. subtilis 168	-0.0658
S. aureus DSM 20231	0.0348
S. aureus Newman	-0.0535
S. pneumoniae D39V [2]	0.0689
